Data from PubChem BioAssay (NCI).
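The compound was tested at five concentrations on cells cultured in 96-well plates, with a 48-hour exposure period. GI50 is the concentration that inhibits growth by half. TGI is the concentration that stops growth completely.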

Experiments:
Experiment in all cases: DTP human tumour cell line panel, 48 h
OVCAR-3 ovarian = system: OVCAR-3 ovarian
A549 NSCLC = system: A549 NSCLC
LOX IMVI melanoma = system: LOX IMVI melanoma
HL-60(TB) leukemia = system: HL-60(TB) leukemia
HOP-92 NSCLC = system: HOP-92 NSCLC
COLO 205 colon = system: COLO 205 colon
OVCAR-4 ovarian = system: OVCAR-4 ovarian
RXF 393 renal = system: RXF 393 renal

Cc1ccc(NC2=C(Sc3ccc(Cl)cc3)C(=O)N(Cc3ccccc3)C2=O)cc1Cl
GI50 (OVCAR-3 ovarian): 2.09 µM
TGI (OVCAR-3 ovarian): 5.31 µM
GI50 (A549 NSCLC): 3.38 µM
TGI (A549 NSCLC): 15.9 µM
GI50 (LOX IMVI melanoma): 4.84 µM
TGI (LOX IMVI melanoma): 17.1 µM
GI50 (HL-60(TB) leukemia): 11.9 µM
TGI (HL-60(TB) leukemia): 27.6 µM
GI50 (HOP-92 NSCLC): 4.59 µM
TGI (HOP-92 NSCLC): 17 µM
GI50 (COLO 205 colon): 31.9 µM
TGI (COLO 205 colon): > 100 µM
GI50 (OVCAR-4 ovarian): 4.82 µM
TGI (OVCAR-4 ovarian): 18 µM

Nc1ncc(-c2ccc(C(F)(F)F)cc2)c(NC2CCCCCC2)n1
GI50 (OVCAR-3 ovarian): 35.9 µM
TGI (OVCAR-3 ovarian): > 100 µM
GI50 (A549 NSCLC): 16.5 µM
TGI (A549 NSCLC): > 100 µM
GI50 (RXF 393 renal): 16.1 µM
TGI (RXF 393 renal): 88 µM
GI50 (HL-60(TB) leukemia): 21.4 µM
TGI (HL-60(TB) leukemia): 63.6 µM
GI50 (COLO 205 colon): 19.5 µM
TGI (COLO 205 colon): 36.7 µM
GI50 (OVCAR-4 ovarian): 16.7 µM
TGI (OVCAR-4 ovarian): > 100 µM

O=C(O)c1ccc(NS(=O)(=O)c2cccc3cccnc23)cc1
GI50 (OVCAR-3 ovarian): > 100 µM
TGI (OVCAR-3 ovarian): > 100 µM
GI50 (A549 NSCLC): > 100 µM
TGI (A549 NSCLC): > 100 µM
GI50 (LOX IMVI melanoma): > 100 µM
TGI (LOX IMVI melanoma): > 100 µM
GI50 (RXF 393 renal): > 100 µM
TGI (RXF 393 renal): > 100 µM
GI50 (COLO 205 colon): > 100 µM
TGI (COLO 205 colon): > 100 µM
GI50 (OVCAR-4 ovarian): > 100 µM
TGI (OVCAR-4 ovarian): > 100 µM

Cc1nn2c(/C=C3/C(=O)Nc4ccccc43)c(-c3ccc(Cl)cc3)nc2s1
GI50 (OVCAR-3 ovarian): 13.4 µM
TGI (OVCAR-3 ovarian): > 50 µM
GI50 (A549 NSCLC): 16.2 µM
TGI (A549 NSCLC): > 50 µM
GI50 (LOX IMVI melanoma): 10.6 µM
TGI (LOX IMVI melanoma): 21.4 µM
GI50 (RXF 393 renal): 14.1 µM
TGI (RXF 393 renal): 42.8 µM
GI50 (COLO 205 colon): 14.9 µM
TGI (COLO 205 colon): > 50 µM

O=C(CNC(=O)c1cccc2ccccc12)Nc1ccccc1Oc1ccccc1
GI50 (OVCAR-3 ovarian): 0.19 µM
TGI (OVCAR-3 ovarian): 0.638 µM
GI50 (A549 NSCLC): 0.459 µM
TGI (A549 NSCLC): > 10 µM
GI50 (LOX IMVI melanoma): 0.307 µM
TGI (LOX IMVI melanoma): > 10 µM
GI50 (HOP-92 NSCLC): 2.22 µM
TGI (HOP-92 NSCLC): > 10 µM
GI50 (COLO 205 colon): 0.308 µM
TGI (COLO 205 colon): 1.14 µM
GI50 (OVCAR-4 ovarian): 4.54 µM
TGI (OVCAR-4 ovarian): > 10 µM

Cl.Fc1c[c-]c(-c2ccccn2)c(F)c1.[Pt].c1ccc([PH+](CC[PH+](c2ccccc2)c2ccccc2)c2ccccc2)cc1
GI50 (OVCAR-3 ovarian): 0.0827 µM
TGI (OVCAR-3 ovarian): 0.414 µM
GI50 (RXF 393 renal): 0.214 µM
TGI (RXF 393 renal): 0.997 µM
GI50 (HL-60(TB) leukemia): 0.0563 µM
TGI (HL-60(TB) leukemia): 0.319 µM
GI50 (HOP-92 NSCLC): 0.121 µM
TGI (HOP-92 NSCLC): 0.422 µM
GI50 (OVCAR-4 ovarian): 0.187 µM
TGI (OVCAR-4 ovarian): 1.01 µM

CN(C)CCNC(=O)c1cc([N+](=O)[O-])ccn1
TGI (OVCAR-3 ovarian): 56.2 µM
TGI (A549 NSCLC): > 100 µM
TGI (LOX IMVI melanoma): 96.9 µM
TGI (RXF 393 renal): > 100 µM
TGI (HL-60(TB) leukemia): 46.4 µM
TGI (COLO 205 colon): 26.3 µM
TGI (OVCAR-4 ovarian): 43 µM

C=C1C(=O)O[C@@H]2C[C@@H](C)[C@@H]3[C@@H](OC4OC(COC(C)=O)C(O)C(O)C4O)CC(=O)[C@@]3(C)C[C@H]12 (some centres not stated)
TGI (OVCAR-3 ovarian): 3.46 µM
TGI (A549 NSCLC): 22.3 µM
TGI (LOX IMVI melanoma): 1.78 µM
TGI (RXF 393 renal): 4.21 µM
TGI (HOP-92 NSCLC): 2.15 µM
TGI (COLO 205 colon): 1.88 µM
TGI (OVCAR-4 ovarian): 12.5 µM

O=[N+]([O-])c1cc(Br)cc2c1[nH]c1ccc(Br)cc12
GI50 (OVCAR-3 ovarian): 2.56 µM
TGI (OVCAR-3 ovarian): 7.42 µM
GI50 (A549 NSCLC): 6.11 µM
TGI (A549 NSCLC): 45 µM
GI50 (LOX IMVI melanoma): 4.9 µM
TGI (LOX IMVI melanoma): > 100 µM
GI50 (RXF 393 renal): 5.04 µM
TGI (RXF 393 renal): 20.9 µM
GI50 (HOP-92 NSCLC): 7.85 µM
TGI (HOP-92 NSCLC): 36.5 µM
GI50 (COLO 205 colon): 4.7 µM
TGI (COLO 205 colon): > 100 µM
GI50 (OVCAR-4 ovarian): 2.48 µM
TGI (OVCAR-4 ovarian): 8.47 µM

O=c1[nH]nc2c3c(cccc13)NC(CN1Cc3ccccc3C1)=N2
GI50 (OVCAR-3 ovarian): 5.64 µM
TGI (OVCAR-3 ovarian): > 100 µM
GI50 (A549 NSCLC): 5.69 µM
TGI (A549 NSCLC): > 100 µM
GI50 (LOX IMVI melanoma): 3.16 µM
TGI (LOX IMVI melanoma): > 100 µM
GI50 (RXF 393 renal): 3.79 µM
TGI (RXF 393 renal): 74.1 µM
GI50 (HL-60(TB) leukemia): 9.13 µM
TGI (HL-60(TB) leukemia): > 100 µM
GI50 (COLO 205 colon): 4.09 µM
TGI (COLO 205 colon): 89.7 µM
GI50 (OVCAR-4 ovarian): 5.77 µM
TGI (OVCAR-4 ovarian): > 100 µM

NC1CCC[C@@H](O)[C@H]1O (some centres not stated)
TGI (OVCAR-3 ovarian): > 100 µM
TGI (A549 NSCLC): > 100 µM
TGI (LOX IMVI melanoma): > 100 µM
TGI (HL-60(TB) leukemia): > 100 µM
TGI (COLO 205 colon): > 100 µM
